Results as given in patent US8367692B2, “Spiro (piperidine-4,2′-pyrrolidine)-1-(3,5-trifluoromethyl phenyl) methylcarboxamides as NK1 tachikynin receptor antagonists” (Glaxo Wellcome Manufacturing Pte Ltd, priority 2008, dated 2013).

Assays:
NK1 receptor = biological target: T1, NK1 receptor (Meriones unguiculatus, UniProt Q5DUB1); test: Gerbil foot tapping model (GR73632-induced, icv); assay type: in vivo
T1 construct: from tissue; host or cells: living gerbil, central nervous system (icv agonist challenge)
Source text: The ability of the compounds of the invention to penetrate the central nervous system and to bind at the NK1 receptor may be determined using the gerbil foot tapping model as described by Rupniak & Williams, Eur. Jour. of Pharmacol., 1994.
Intracerebroventricular (icv) administration of the NK1 receptor agonist GR73632 (R. M. Hagan et al., Neuropeptides 1991, 19 (2), 127-135) a characteristic hind leg foot tapping (GFT) response in gerbils which can be inhibited by potent NK1 receptor antagonists. The gerbil foot tapping paradigm was carried out as follows; gerbils were dosed with compound of the invention, and following an appropriate pre-treatment time were anaesthetised using isofluorane/oxygen mixture. The skull was then exposed and 5 ul of GR73632 (3 pmol conc.) was injected by insertion of a cuffed 25G needle to a depth of 4 mm below bregma, directly into the lateral ventricle (intracerebroventricular dosing). Immediately following the injection, gerbils were placed individually into a clear observation box to recover.
Upon the gerbil regaining its righting reflex, the duration of repetitive hind foot tapping was recorded over a 5 minute period. The dose of the test compound required to inhibit by 50% the tapping induced by the NK1 agonist expressed as mg/kg is referred to as the ID50 values.

human NK1 receptor = biological target: T2, human NK1 receptor (Homo sapiens, UniProt P25103); test: NK1 functional assay (B), FLIPR inhibition of intracellular calcium release induced by Substance P; assay type: cell-based; settings: U2OS cells transduced with BacMam virus expressing human NK1; ligand Substance P; read-out: binding potency pKi in the NK1 functional assay (B) (converted)
T2 construct: expressed in transfected cells; host or cells: human U2OS cells transiently transduced with recombinant BacMam virus
Source text: B) Measurement of NK Functional Potency:
Compounds of the invention were further characterised in a functional assay using FLIPR technology for the determination of their effect to inhibit the intracellular calcium release induced by interaction of NK receptors with its perspective ligands. Human U2OS cells transiently transduced with recombinant BacMam virus expressing human NK1, NK2 and NK3 receptors were used in the studies (see J. P. Condreay et al, Proc. Natl. Acad. Sci. USA 1999, 96(1): 127-132). Briefly, U20S cells were harvested from tissue culture flasks, re-suspended to a cell density of 200-300K/ml and mixed with recombinant BacMam virus carrying NKR gene in a virus/cell ratio of 1% (v/v). 10K-15K cells/well were then seeded in 384-well Greiner bio-one plate in culture medium (DMEM with 10% FBS), incubated overnight in 5% CO2 at 37° C. […] Finally, 10 uL/well of NKR ligands in assay buffer containing 0.1% BSA was added to the cells and fluorescence signal read on a FLIPR system. […] IC50 values of each compound were determined by an 11-point 3×-dilution inhibition curve. The potency each antagonist (fpKi) was calculated from plC50 by the Cheng-Prusoff equation using EC50 of ligand determined in a separate experiment.

T1 sequence (Q5DUB1 whole entry): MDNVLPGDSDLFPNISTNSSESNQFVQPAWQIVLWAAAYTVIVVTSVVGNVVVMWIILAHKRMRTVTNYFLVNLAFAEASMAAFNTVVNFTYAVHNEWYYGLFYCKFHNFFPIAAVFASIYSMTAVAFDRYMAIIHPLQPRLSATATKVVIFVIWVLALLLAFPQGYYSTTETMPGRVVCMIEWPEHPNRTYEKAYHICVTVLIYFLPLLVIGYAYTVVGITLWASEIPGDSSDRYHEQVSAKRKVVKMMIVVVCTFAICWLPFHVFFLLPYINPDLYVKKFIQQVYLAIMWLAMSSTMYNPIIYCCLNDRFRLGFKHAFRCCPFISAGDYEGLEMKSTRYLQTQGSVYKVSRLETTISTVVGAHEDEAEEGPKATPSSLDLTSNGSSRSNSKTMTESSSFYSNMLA
T2 sequence (P25103 whole entry): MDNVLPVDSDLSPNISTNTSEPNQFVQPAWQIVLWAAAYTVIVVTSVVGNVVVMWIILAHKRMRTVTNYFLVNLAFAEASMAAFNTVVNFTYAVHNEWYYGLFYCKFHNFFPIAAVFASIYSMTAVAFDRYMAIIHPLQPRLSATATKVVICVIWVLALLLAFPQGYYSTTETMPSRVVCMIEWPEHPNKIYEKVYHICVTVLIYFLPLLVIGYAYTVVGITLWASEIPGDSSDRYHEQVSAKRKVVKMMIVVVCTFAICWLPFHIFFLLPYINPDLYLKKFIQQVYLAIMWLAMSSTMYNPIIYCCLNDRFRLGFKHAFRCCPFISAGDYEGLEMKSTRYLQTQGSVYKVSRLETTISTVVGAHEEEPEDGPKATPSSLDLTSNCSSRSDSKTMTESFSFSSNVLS

Row | Ki (human NK1 receptor) [nM] | Structure (SMILES) | GR73632-induced Foot Tapping behaviour (NK1 receptor; dose range of 0.1 to 10 mg/kg p.o.) | ED50 (NK1 receptor; po, read-out: ID50, dose required to inhibit by 50% the tapping induced by the NK1 agonist) [mg/kg]
1 |  | Cc1cc(F)ccc1[C@H]1C[C@]2(CC[C@H](C(N)=O)N2)CCN1C(=O)N(C)[C@H](C)c1cc(C(F)(F)F)cc(C(F)(F)F)c1.Cl [Example 4, (2R,5S,7R)—N^8-{(1R)-1-[3,5-bis(trifluoromethyl)phenyl]ethyl}-7-(4-fluoro-2-methylphenyl)-N^8-methyl-1,8-diazaspiro[4.5]decane-2,8-dicarboxamide hydrochloride] | significantly attenuated | ~0.67
2 | < 1 | Cc1cc(F)ccc1[C@H]1C[C@@]2(CCC(C(N)=O)N2)CCN1C(=O)N(C)[C@H](C)c1cc(C(F)(F)F)cc(C(F)(F)F)c1 (single isomer, unassigned; diastereoisomer 1) [Example 1] |  | 
